# Assay results as given in patent publication US20070288088A1, “Drug eluting stent with a biodegradable release layer attached with an electro-grafted primer coating” (priority 2006, published 2007).
# Legend:
# [1] = test system: EC's as compared to SMC's; settings: EC's versus SMC's; cited from earlier work
# [2] = test system: cells seeded in 96-well microplate; settings: control samples
# Protocol: A potential cytotoxicity study of the electro-grafted coatings is conducted in accordance with the standard ISO 10993-5.
# The extraction was performed in triplicate with the culture medium (DMEM) containing fetal calf serum, in sterile, closed, chemically inert containers during 96 h at 37° C.
# The extract and its dilutions (50% and 10%) were placed on the cells and left in contact for 24 hours, at least. The cytotoxicity was determined by a vital dye, the neutral red.
# The means of determination retained were the general morphology of the cell (qualitative evaluation) and the percentage of cell viability (quantitative evaluation) based on that the absorbance obtain by reading at 540 nm, is proportional to the number of living cells (quantitative analysis).
# Positive control: the control was performed for each test with a product which provided a reproducible cytotoxic effect under the conditions of the test: a solution of phenol at 3.2 g/l in culture medium (DMEM). The test complied if the percentage of mortality was about 100%.
# The test complied if the percentage of cell viability is 100%.
smiles,measurement,setting,value
CC(=O)O[C@H]1C(=O)[C@@]2(C)[C@H]([C@H](OC(=O)c3ccccc3)[C@]3(O)C[C@H](OC(=O)[C@H](O)[C@@H](NC(=O)c4ccccc4)c4ccccc4)C(C)=C1C3(C)C)[C@]1(OC(C)=O)CO[C@@H]1C[C@@H]2O [Paclitaxel],Threshold toxic concentration,[1],comparable or even lower against EC's as compared to SMC's
"Oc1ccccc1 [Positive control, phenol]",Death %,[2],99%
same,Qualitative evaluation (neutral red),[2],Cells don't
same,Viability %,[2],1%
CO[C@H]1C[C@@H]2CC[C@@H](C)[C@@](O)(O2)C(=O)C(=O)N2CCCC[C@H]2C(=O)O[C@H]([C@H](C)C[C@@H]2CC[C@@H](O)[C@H](OC)C2)CC(=O)[C@H](C)/C=C(\C)[C@@H](O)[C@@H](OC)C(=O)[C@H](C)C[C@H](C)/C=C/C=C/C=C/1C [Sirolimus],Threshold toxic concentration,[1],comparable or even lower against EC's as compared to SMC's
